In this assay the test system is NB4 APL cells, proliferation, XTT absorbance. Kind of assay: NB4 APL cell antiproliferative activity – XTT viability, AHD inhibitor project, dose response (AID 1794803). (In general: Tetrazolium dyes change colour on reduction, which living cells bring about.)

Molecules are shown by their SMILES. The source made the active and inactive calls.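 The calls were made as follows: active = EC50 under 50 µM in a live-cell viability test; inactive = the rest.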 Bounds are passed on as bounds.

In general, EC50 refers to the concentration giving half of the maximal effect. With `O=C(NCC1CCNCC1)c1c[nH]c2cc(-c3ccc(N4CCCC4)cc3)ccc12`, the EC50 was 50 µM.

For `NCc1ccc(-c2ccc3cc(C(=O)NCC4CCNCC4)oc3c2)cc1`, the EC50 is > 51 µM (inactive).

Consider `O=C(NCC1CCNCC1)c1cc2cc(-c3ccc(N4CCCCC4)cc3)ccc2[nH]1`, for which the EC50 is > 51 µM (inactive).

Regarding `O=C(NCC1CCNCC1)c1cc2ccc(-c3ccc(N4CCCCC4)cc3)cc2s1`, the concentration giving a half-maximal response (EC50) is 5.3 µM.

Turning to `O=C(NCC1CCNCC1)c1cc2cc(-c3cn[nH]c3)ccc2[nH]1`, the EC50 was > 51 µM (inactive).

On to `O=C(NCC1CCNCC1)c1coc2cc(-c3ccc(N4CCCCC4)cc3)ccc12`, for which the EC50 was 11 µM.

With `NC(=O)c1ccc(-c2ccc3cc(C(=O)NCC4CCNCC4)sc3c2)cc1`, the EC50 is > 51 µM (inactive).

Consider `O=C(NCC1CCNCC1)c1cc2cc(-c3ccc(N4CCCCC4)cc3)ccc2s1`, for which the EC50 was 9.4 µM.

With `O=C(NCC1CCNCC1)c1cc2ccc(-c3ccc(N4CCCC4)cc3)cc2s1`, the EC50 was 10 µM.

Turning to `O=C(NCC1CCNCC1)c1c[nH]c2cc(-c3ccc(N4CCCCC4)cc3)ccc12`, the EC50 was 32 µM.

The record behind these values is PubChem BioAssay AID1794803 (Yongcheng Song lab at Baylor College of Medicine, 2022).
